Experimental data as given in patent publication US20040142317A1, “Use of amino acid transporter atbo,+ as a delivery system for drugs and prodrugs” (priority 2003, published 2004).

Key:
[1] = target: T1, mouse ATB^0,+ (Mus musculus, UniProt Q9JMA9); experiment: Transport of radiolabeled substrates in HRPE cells expressing cloned mouse ATB0,+; format: cell-based
T1 sequence (Q9JMA9 1-638): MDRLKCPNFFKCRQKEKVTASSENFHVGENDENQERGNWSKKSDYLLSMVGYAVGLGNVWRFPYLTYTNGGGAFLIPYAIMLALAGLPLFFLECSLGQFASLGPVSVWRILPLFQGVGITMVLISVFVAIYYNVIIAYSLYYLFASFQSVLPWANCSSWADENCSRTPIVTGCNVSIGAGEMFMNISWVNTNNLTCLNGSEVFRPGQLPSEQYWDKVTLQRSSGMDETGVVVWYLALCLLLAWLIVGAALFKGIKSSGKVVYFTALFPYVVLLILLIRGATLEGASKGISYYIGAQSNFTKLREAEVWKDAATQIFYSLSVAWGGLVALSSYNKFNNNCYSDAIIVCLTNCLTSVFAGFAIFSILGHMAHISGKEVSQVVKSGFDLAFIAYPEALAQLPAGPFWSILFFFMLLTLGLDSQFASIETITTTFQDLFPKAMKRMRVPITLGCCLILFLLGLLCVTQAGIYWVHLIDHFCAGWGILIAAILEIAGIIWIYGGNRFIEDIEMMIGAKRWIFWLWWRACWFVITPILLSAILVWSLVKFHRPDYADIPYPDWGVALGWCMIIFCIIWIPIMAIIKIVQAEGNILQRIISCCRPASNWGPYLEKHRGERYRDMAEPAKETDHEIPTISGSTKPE

[2] = target: T1, mouse ATB^0,+
[3] = target: T2, ATB^0 (Homo sapiens, UniProt Q15758); experiment: cell-based
T2 sequence (Q15758 1-541): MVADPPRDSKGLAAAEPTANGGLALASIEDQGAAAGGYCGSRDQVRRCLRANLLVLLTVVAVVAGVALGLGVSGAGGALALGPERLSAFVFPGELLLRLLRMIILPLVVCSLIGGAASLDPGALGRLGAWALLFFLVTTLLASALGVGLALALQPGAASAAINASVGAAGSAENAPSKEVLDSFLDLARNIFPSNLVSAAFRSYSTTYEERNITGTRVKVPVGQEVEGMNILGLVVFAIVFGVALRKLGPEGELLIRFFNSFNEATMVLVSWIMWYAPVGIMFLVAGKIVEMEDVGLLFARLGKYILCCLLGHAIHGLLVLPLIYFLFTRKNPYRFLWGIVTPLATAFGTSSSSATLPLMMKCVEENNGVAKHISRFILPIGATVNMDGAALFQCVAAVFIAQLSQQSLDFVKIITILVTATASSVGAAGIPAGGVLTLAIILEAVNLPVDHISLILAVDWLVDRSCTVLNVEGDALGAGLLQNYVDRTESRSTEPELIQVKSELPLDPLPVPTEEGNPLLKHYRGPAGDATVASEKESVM

[4] = target: T1, mouse ATB^0,+; remark: listed apart in the source
[5] = target: T1, mouse ATB^0,+; experiment: cell-based
[6] = target: T1, mouse ATB^0,+; remark: listed apart in the source
[7] = target: T3, OCTN2 (Homo sapiens, UniProt O76082); details: literature values; cited from earlier work
T3 sequence (O76082 1-557): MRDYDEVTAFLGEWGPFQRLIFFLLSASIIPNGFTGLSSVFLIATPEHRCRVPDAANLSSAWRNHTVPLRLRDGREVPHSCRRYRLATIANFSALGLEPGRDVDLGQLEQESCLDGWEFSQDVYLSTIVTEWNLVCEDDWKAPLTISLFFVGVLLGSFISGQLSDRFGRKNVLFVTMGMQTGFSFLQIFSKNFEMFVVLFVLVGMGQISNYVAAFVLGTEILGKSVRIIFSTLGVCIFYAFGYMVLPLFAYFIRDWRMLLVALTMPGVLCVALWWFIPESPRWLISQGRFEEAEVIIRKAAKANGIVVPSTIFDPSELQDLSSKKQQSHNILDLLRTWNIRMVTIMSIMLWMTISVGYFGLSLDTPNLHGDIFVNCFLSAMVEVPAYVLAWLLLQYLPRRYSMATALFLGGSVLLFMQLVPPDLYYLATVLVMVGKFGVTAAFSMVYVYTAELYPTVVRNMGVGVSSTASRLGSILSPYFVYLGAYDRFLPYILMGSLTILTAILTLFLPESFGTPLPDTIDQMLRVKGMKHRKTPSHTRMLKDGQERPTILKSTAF

[8] = system: ATB^0,+ mRNA; experiment: ATB0,+ mRNA levels in mouse intestine after bacterial lipopolysaccharide injection (semi-quantitative RT-PCR); format: in vivo; details: 5 mg/kg i.p., 16 h; GAPDH as internal control
Procedure: Mice were injected i.p. with either saline (control) or bacterial lipopolysaccharide (5 mg/kg body wt). 16 h following injection, mice were killed and the various segments of the intestine (J, jejunum; L, ileum; C, colon) were collected for mRNA isolation. Five-week-old IL2^+/+ and IL2^−/− mice were killed and the various segments of the intestine were collected for mRNA isolation. Semiquantitative RT-PCR with low number of PCR cycles was carried out with primer pairs specific for mouse ATB^0,+, mouse glyceraldehyde-3-phosphate dehydrogenase (GAPDH), and mouse cyclophilin C (CypC) and the RT-PCR products were detected by Southern hybridization and the signals were quantified.
Since D-serine is an important modulator of glutamatergic neurotransmission and other D-amino acids may also have significant biological effects, it is of clinical relevance to know if there are any pathological conditions in which the intestinal absorption of D-amino acids may be altered. Therefore, the present inventors assessed the expression of ATB^0,+ in the intestinal tract under inflammatory conditions that are known to affect intestinal function. The present inventors used two different animal models for this purpose. […] The steady-state levels of ATB^0,+ mRNA were examined by a semi-quantitative RT-PCR in the jejunum, ileum, and colon. […]

[9] = substrate: N=C(NCCC[C@H](N)C(=O)O)N[N+](=O)[O-]; experiment: cells, lysate or membranes; details: other: oocytes, various concentrations; pH 7.5
[10] = substrate: NC(=N[N+](=O)[O-])Nc1cccc([C@H](N)C(=O)O)c1; experiment: cells, lysate or membranes; details: pH 7.5
[11] = HRPE cells, radiolabeled substrate

## N[C@H](C(=O)O)c1ccccc1 [Phenylglycine, L-phenylglycine]
[1]; HRPE cells, [14C]phenylglycine 10 μM or [8-3H]-valacyclovir 1.25 μM
  transport in ATB^0,+-expressing cells versus vector-transfected cells (in words): three times higher
[1]; [14C]phenylglycine 10 μM, HRPE cells
  cDNA-specific transport by ATB^0,+ relative to ATB^0 and mb^0,+AT: ten times higher
[2]
  inhibition: 100%
[3]
  Ki: 19 ± 5.5 µM
[4]; from Ki values of Table 5
  affinity of ATB^0,+ relative to ATB^0: 4 times
  affinity of ATB^0,+ relative to affinity for glycine: 19 times
  affinity of ATB^0,+ relative to affinity for phenylalanine: 13 times
  affinity of ATB^0,+ relative to b^0,+AT: 53 times
[5]
  Ki: 5.3 ± 0.4 µM

## C[N+](C)(C)CC(O)CC(=O)[O-] (stereo not drawn) [carnitine, β-hydroxy-γ-trimethylaminobutyrate]
[1]; HRPE cells
  Hill coefficient for Na+ activation of substrate transport: 1.6±0.1
  K0.5 for Na+ in substrate transport: 54 ± 4 mM
  Vmax of ATB^0,+-mediated transport: 72±2 nmol/10^6 cells/15 min
[1]; [11]
  Michaelis-Menten constant (Kt) of transport via mouse ATB^0,+: 0.83 ± 0.08 mM
  transport in ATB^0,+ cDNA-transfected cells compared to vector-transfected cells: 16 fold
[1]; carnitine 15 μM, HRPE cells
  reduction of transport on removal of Cl− (gluconate): ~60%
  transport when Na+ substituted with N-methyl-D-glucamine: completely abolished
[1]; summary of HRPE cell and oocyte values
  Kt of ATB^0,+ (discussion summary): 1 to 2 mM
[6]; 10 mM carnitine, esters under similar conditions
  induced inward currents: ~300 nA
[6]; oocytes, carnitine 1 mM
  Hill coefficient (nH) for Cl− activation of substrate-induced currents: 0.9±0.2
  Hill coefficient (nH) for Na+ activation of substrate-induced currents: 1.9±0.5
  K0.5 for Cl− of substrate-induced currents: 15 ± 5 mM
  K0.5 for Na+ of substrate-induced currents: 25 ± 4 mM
[6]; oocytes, membrane potential −50 mV
  K0.5 (concentration inducing half-maximal current; Michaelis-Menten constant): 1.8 ± 0.4 mM
[7]
  Kt of OCTN2: 5 to 15 µM
[4]
  IC50: 600 ± 100 µM

## C[C@H](N)C(=O)O [Alanine]
[6]; L-amino acid 1 mM, NaCl pH 7.5
  Current in X. laevis oocytes (nA), L-isomer: 650 ± 86 nA
[3]
  Ki: 22.5 ± 4.2 µM
[5]
  Ki: 101 ± 14.2 µM

## lipopolysaccharide
[8]
  increase of ATB^0,+ mRNA versus saline-treated mice, colon: 2 fold
  increase of ATB^0,+ mRNA versus saline-treated mice, ileum: 7 fold

B1: mouse ATB^0,+ (Mus musculus) (protein)
chain: T1 sequence (Q9JMA9 1-638)
[9]
  Km: 348 ± 5 µM
[10]
  Km: 106 ± 1 µM
